Assay results as given in PubChem BioAssay AID270 (DTP/NCI, 2004).
Values joined by “and” are separate entries in the source; they are usually repeats but may differ in a detail not shown here. Identical values can stand only once. Results filed as inconclusive are left out.

Test system: BDF1 mice, s.c. Lewis lung carcinoma, T/C %
Experiment: NCI In Vivo Anticancer Drug Screen. Data for tumor model Lewis Lung Carcinoma (subcutaneous) in B6D2F1 (BDF1) mice
Procedure, shortened: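 Tumor-bearing mice were treated with test compound, and either survival or tumor size was recorded. Values are the treated-group measurement divided by that of the vehicle-treated control group.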

[1] = endpoint: median survival time, dose: 0.5 mg/kg/injection, schedule: Q01DX009 (ip), vehicle: saline, higher = longer survival
[2] = endpoint: median survival time, dose: 2.5 mg/kg/injection, schedule: Q01DX009 (ip), vehicle: saline, higher = longer survival
[3] = endpoint: median survival time, dose: 12.5 mg/kg/injection, schedule: Q01DX009 (ip), vehicle: Klucel (hydroxypropylcellulose) (HPC), higher = longer survival
[4] = endpoint: median survival time, dose: 25.0 mg/kg/injection, schedule: Q01DX009 (ip), vehicle: Klucel (hydroxypropylcellulose) (HPC), higher = longer survival
[5] = endpoint: median survival time, dose: 50.0 mg/kg/injection, schedule: Q01DX009 (ip), vehicle: Klucel (hydroxypropylcellulose) (HPC), higher = longer survival

In the case of CN(C)c1ccc(-c2cc[n+](C)cc2)cc1, the T/C [1] is reported as 103 % of control, the T/C (endpoint: median survival time, dose: 1.0 mg/kg/injection, schedule: Q01DX009 (ip), vehicle: saline, higher = longer survival) is reported as 114 % of control and the T/C (endpoint: median survival time, dose: 2.0 mg/kg/injection, schedule: Q01DX009 (ip), vehicle: saline, higher = longer survival) is reported as 119 % of control. For the same compound, the T/C (endpoint: median survival time, dose: 3.0 mg/kg/injection, schedule: Q01DX009 (ip), vehicle: saline, higher = longer survival) was 106 % of control and the T/C (endpoint: median survival time, dose: 6.0 mg/kg/injection, schedule: Q01DX009 (ip), vehicle: saline, higher = longer survival) was 103 % of control.

With CCCNC1=C(N2CC2)C(=O)C(NCCC)=C(N2CC2)C1=O the T/C [2] was 102 % of control, the T/C (endpoint: median survival time, dose: 5.0 mg/kg/injection, schedule: Q01DX009 (ip), vehicle: saline, higher = longer survival) was 112 % of control and the T/C (endpoint: median survival time, dose: 10.0 mg/kg/injection, schedule: Q01DX009 (ip), vehicle: saline, higher = longer survival) was 114 % of control.

CCn1cnc2c(=S)nc(N)[nH]c21 was tested, and the T/C (endpoint: mean tumor weight, dose: 3.8 mg/kg/injection, schedule: Q01DX011 (ip), vehicle: other, higher = larger tumour) was 81 % of control, the T/C (endpoint: mean tumor weight, dose: 7.5 mg/kg/injection, schedule: Q01DX011 (ip), vehicle: other, higher = larger tumour) was 63 % of control and the T/C (endpoint: mean tumor weight, dose: 15.0 mg/kg/injection, schedule: Q01DX011 (ip), vehicle: other, higher = larger tumour) was 17 % of control.

For COC(=O)[C@@]12OC[C@]34[C@H]([C@@H](O)[C@@H]1O)[C@@]1(C)CC(=O)C(O)=C(C)[C@@H]1C[C@H]3OC(=O)[C@H](OC(=O)/C=C(\C)C(C)C)[C@@H]24, the T/C (endpoint: median survival time, dose: 0.12 mg/kg/injection, schedule: Q01DX009 (ip), vehicle: other, higher = longer survival) was 99 % of control, the T/C (endpoint: median survival time, dose: 0.25 mg/kg/injection, schedule: Q01DX009 (ip), vehicle: other, higher = longer survival) was 91 % of control and the T/C (endpoint: median survival time, dose: 0.5 mg/kg/injection, schedule: Q01DX009 (ip), vehicle: other, higher = longer survival) was 92 % of control. The T/C (endpoint: median survival time, dose: 1.0 mg/kg/injection, schedule: Q01DX009 (ip), vehicle: other, higher = longer survival) was 91 % of control and the T/C (endpoint: median survival time, dose: 2.0 mg/kg/injection, schedule: Q01DX009 (ip), vehicle: other, higher = longer survival) was 87 % of control.

With N=C(N)Sc1cc(O)ccc1O the T/C (endpoint: median survival time, dose: 12.5 mg/kg/injection, schedule: Q01DX009 (ip), vehicle: other, higher = longer survival) was 102 % of control, the T/C (endpoint: median survival time, dose: 18.75 mg/kg/injection, schedule: Q01DX009 (ip), vehicle: saline, higher = longer survival) was 120 % of control and the T/C (endpoint: median survival time, dose: 25.0 mg/kg/injection, schedule: Q01DX009 (ip), vehicle: other, higher = longer survival) was 103 % of control. The T/C (endpoint: median survival time, dose: 37.5 mg/kg/injection, schedule: Q01DX009 (ip), vehicle: saline, higher = longer survival) was 92 % of control, the T/C (endpoint: median survival time, dose: 50.0 mg/kg/injection, schedule: Q01DX009 (ip), vehicle: other, higher = longer survival) was 93 % of control and the T/C (endpoint: median survival time, dose: 100.0 mg/kg/injection, schedule: Q01DX009 (ip), vehicle: other, higher = longer survival) was 100 % of control. The T/C (endpoint: median survival time, dose: 200.0 mg/kg/injection, schedule: Q01DX009 (ip), vehicle: other, higher = longer survival) was 93 % of control and the T/C (endpoint: median survival time, dose: 300.0 mg/kg/injection, schedule: Q01DX009 (ip), vehicle: saline, higher = longer survival) was 91 % of control.

With CC(=O)OC(C)(C)/C=C/C(=O)[C@](C)(O)[C@H]1[C@H](O)C[C@@]2(C)[C@@H]3CC=C4[C@@H](C[C@H](O)C(=O)C4(C)C)[C@]3(C)C(=O)C[C@]12C the T/C (endpoint: mean tumor weight, dose: 0.16 mg/kg/injection, schedule: Q01DX011 (ip), vehicle: saline, higher = larger tumour) was 69 % of control, the T/C (endpoint: mean tumor weight, dose: 0.25 mg/kg/injection, schedule: Q01DX011 (ip), vehicle: saline, higher = larger tumour) was 53 % of control and the T/C (endpoint: mean tumor weight, dose: 0.38 mg/kg/injection, schedule: Q01DX011 (ip), vehicle: saline, higher = larger tumour) was 83 % of control. The T/C (endpoint: mean tumor weight, dose: 0.4 mg/kg/injection, schedule: Q01DX011 (ip), vehicle: carboxymethylcellulose (CMC), higher = larger tumour) was 67 % of control, the T/C (endpoint: mean tumor weight, dose: 0.4 mg/kg/injection, schedule: Q01DX011 (ip), vehicle: saline, higher = larger tumour) was 48 % of control and the T/C (endpoint: mean tumor weight, dose: 0.8 mg/kg/injection, schedule: Q01DX011 (ip), vehicle: saline, higher = larger tumour) was 42 % of control.

In the case of CC(C)C(=O)[O][Sn]([CH3])([CH3])[CH3], the T/C (endpoint: median survival time, dose: 0.09 mg/kg/injection, schedule: Q01DX009 (ip), vehicle: saline, higher = longer survival) is reported as 97 % of control, the T/C (endpoint: median survival time, dose: 0.19 mg/kg/injection, schedule: Q01DX009 (ip), vehicle: saline, higher = longer survival) is reported as 101 % of control and the T/C (endpoint: median survival time, dose: 0.38 mg/kg/injection, schedule: Q01DX009 (ip), vehicle: saline, higher = longer survival) is reported as 89 % of control and 105 % of control.

CC(C)(C)c1ccc(CN2CCN(C(c3ccccc3)c3ccc(Cl)cc3)CC2)cc1 (configuration not stated) was tested, and the T/C (endpoint: median survival time, dose: 0.5 mg/kg/injection, schedule: Q01DX009 (ip), vehicle: saline with Tween-80, higher = longer survival) was 112 % of control and the T/C (endpoint: median survival time, dose: 2.0 mg/kg/injection, schedule: Q01DX009 (ip), vehicle: saline with Tween-80, higher = longer survival) was 112 % of control and 155 % of control and 233 % of control.

COC1C(O)=C2C(=O)OC(C)(O)/C=C/C=C\C=C/C=C/C(c3ccccc3)NC(=O)/C=C/C=C/C=C/C=C/C2(C)C1O (configuration not stated) was tested, and the T/C (endpoint: median survival time, dose: 0.12 mg/kg/injection, schedule: Q01DX009 (ip), vehicle: saline, higher = longer survival) was 92 % of control, the T/C (endpoint: median survival time, dose: 0.25 mg/kg/injection, schedule: Q01DX009 (ip), vehicle: saline, higher = longer survival) was 95 % of control and the T/C [1] was 100 % of control. The T/C (endpoint: median survival time, dose: 0.62 mg/kg/injection, schedule: Q01DX009 (ip), vehicle: saline, higher = longer survival) was 113 % of control and the T/C [2] was 91 % of control.

In the case of [O-][n+]1c(CCl)nc2cccc3c2c1-c1ccccc1-3, the T/C (endpoint: median survival time, dose: 25.0 mg/kg/injection, schedule: Q01DX009 (ip), vehicle: saline with Tween-80, higher = longer survival) is reported as 106 % of control and 111 % of control, the T/C (endpoint: median survival time, dose: 50.0 mg/kg/injection, schedule: Q01DX009 (ip), vehicle: saline with Tween-80, higher = longer survival) is reported as 112 % of control and 118 % of control and the T/C (endpoint: median survival time, dose: 100.0 mg/kg/injection, schedule: Q01DX009 (ip), vehicle: saline with Tween-80, higher = longer survival) is reported as 94 % of control.

COc1cc2ccc3c4cc5c(cc4c[n+](C)c3c2cc1OC)OCO5 was tested, and the T/C (endpoint: median survival time, dose: 1.25 mg/kg/injection, schedule: Q01DX009 (ip), vehicle: Klucel (hydroxypropylcellulose) (HPC), higher = longer survival) was 108 % of control, the T/C (endpoint: median survival time, dose: 2.5 mg/kg/injection, schedule: Q01DX009 (ip), vehicle: Klucel (hydroxypropylcellulose) (HPC), higher = longer survival) was 92 % of control and the T/C (endpoint: median survival time, dose: 5.0 mg/kg/injection, schedule: Q01DX009 (ip), vehicle: Klucel (hydroxypropylcellulose) (HPC), higher = longer survival) was 102 % of control. The T/C (endpoint: median survival time, dose: 10.0 mg/kg/injection, schedule: Q01DX009 (ip), vehicle: Klucel (hydroxypropylcellulose) (HPC), higher = longer survival) was 99 % of control.

In the case of COc1ccc(OCC(O)CN2CCN(c3ccc(Cl)cc3)CC2)cc1 (configuration not stated), the T/C [3] is reported as 90 % of control, the T/C [4] is reported as 87 % of control and the T/C [5] is reported as 96 % of control. The T/C (endpoint: median survival time, dose: 100.0 mg/kg/injection, schedule: Q01DX009 (ip), vehicle: Klucel (hydroxypropylcellulose) (HPC), higher = longer survival) was 90 % of control and the T/C (endpoint: median survival time, dose: 200.0 mg/kg/injection, schedule: Q01DX009 (ip), vehicle: Klucel (hydroxypropylcellulose) (HPC), higher = longer survival) was 89 % of control.

In the case of OC1CC2CCC(C1)N2CCCN1c2ccccc2Sc2ccc(Cl)cc21 (configuration not stated), the T/C [3] is reported as 95 % of control, the T/C [4] is reported as 96 % of control and the T/C [5] is reported as 99 % of control.

CC1=C(/C=C/C(C)=C/C=C/C(C)=C/C(=O)O)C(C)(C)CCC1 was tested, and the T/C (endpoint: median survival time, dose: 6.25 mg/kg/injection, schedule: Q01DX005 (ip), vehicle: saline with Tween-80, higher = longer survival) was 109 % of control, the T/C (endpoint: median survival time, dose: 8.0 mg/kg/injection, schedule: Q01DX009 (ip), vehicle: saline with Tween-80, higher = longer survival) was 102 % of control and the T/C (endpoint: median survival time, dose: 16.0 mg/kg/injection, schedule: Q01DX009 (ip), vehicle: saline with Tween-80, higher = longer survival) was 93 % of control. The T/C (endpoint: median survival time, dose: 32.0 mg/kg/injection, schedule: Q01DX009 (ip), vehicle: saline with Tween-80, higher = longer survival) was 93 % of control.

With CC1=C(/C=C/C(C)=C/C=C/C(C)=C/CO)C(C)(C)CCC1 the T/C (endpoint: median survival time, dose: 4.0 mg/kg/injection, schedule: Q01DX005 (ip), vehicle: saline with Tween-80, higher = longer survival) was 108 % of control, the T/C (endpoint: median survival time, dose: 12.5 mg/kg/injection, schedule: Q01DX005 (ip), vehicle: saline with Tween-80, higher = longer survival) was 109 % of control and the T/C (endpoint: median survival time, dose: 16.0 mg/kg/injection, schedule: Q01DX005 (ip), vehicle: saline with Tween-80, higher = longer survival) was 111 % of control. The T/C (endpoint: median survival time, dose: 32.0 mg/kg/injection, schedule: Q01DX005 (ip), vehicle: saline with Tween-80, higher = longer survival) was 115 % of control, the T/C (endpoint: median survival time, dose: 64.0 mg/kg/injection, schedule: Q01DX005 (ip), vehicle: saline with Tween-80, higher = longer survival) was 191 % of control and the T/C (endpoint: median survival time, dose: 128.0 mg/kg/injection, schedule: Q01DX005 (ip), vehicle: saline with Tween-80, higher = longer survival) was 92 % of control.

In the case of COC12C(COC(N)=O)C3=C(C(=O)C(C)=C(N)C3=O)N1CC1C2N1C (configuration not stated), the T/C (endpoint: median survival time, dose: 2.0 mg/kg/injection, schedule: Q01DX011 (ip), vehicle: other, higher = longer survival) is reported as 98 % of control and the T/C (endpoint: median survival time, dose: 4.0 mg/kg/injection, schedule: Q01DX011 (ip), vehicle: other, higher = longer survival) is reported as 96 % of control.
